Reference: PMC5114172 (Journal of applied toxicology : JAT, 2016)
Where two headings read alike, the source gives them in different places.

Experiments:
MD-PBMCs = experiment: IL-1β secretion; type: cell-based, human
monocyte-depleted PBMCs = details: MD-PBMCs, ref Brown and Whalen, 2015, cited from earlier work
[1] = tested on: highly purified human NKs; details: NK cells, ref Brown and Whalen, 2015, cited from earlier work

SMILES: CC(C)(C)c1ccc(S(=O)(=O)/C=C/C#N)cc1 [BAY 11-7085, reference compound]
- Interleukin 1 beta secreted (MD-PBMCs; donor F244, 24 h, BAY 11-7085 alone (0 DBT)): 836 ± 8 pg/mL
- Interleukin 1 beta secreted (MD-PBMCs; donor F245, 24 h, BAY 11-7085 alone (0 DBT)): 536 ± 51 pg/mL
- Interleukin 1 beta secreted (MD-PBMCs; donor F333, 24 h, BAY 11-7085 alone (0 DBT)): 2039 ± 62 pg/mL
- Interleukin 1 beta secreted (MD-PBMCs; donor F334, 24 h, BAY 11-7085 alone (0 DBT)): 703 ± 70 pg/mL
- effect on baseline IL-1β secretion (MD-PBMCs; inhibitor alone): varying effects

SMILES: CC(=O)N[C@@H](Cc1ccc(O)cc1)C(=O)N[C@H](C(=O)N[C@@H](C)C(=O)N[C@@H](CC(=O)O)C(=O)CCl)C(C)C [Caspase-1 Inhibitor II, reference compound]
- effect on baseline IL-1β production (MD-PBMCs; 50 μM, cells from each donor, p<0.05): significantly decreased
- Interleukin 1 beta secreted (MD-PBMCs; donor F240, 24 h, Caspase-1 inhibitor II 50 μM alone (0 DBT)): 237 ± 19 pg/mL
- Interleukin 1 beta secreted (MD-PBMCs; donor F242, 24 h, Caspase-1 inhibitor II 50 μM alone (0 DBT)): 460 ± 15 pg/mL
- Interleukin 1 beta secreted (MD-PBMCs; donor F244, 24 h, Caspase-1 inhibitor II 50 μM alone (0 DBT)): 233 ± 11 pg/mL
- Interleukin 1 beta secreted (MD-PBMCs; donor F245, 24 h, Caspase-1 inhibitor II 50 μM alone (0 DBT)): 150 ± 8 pg/mL
- Interleukin 1 beta secreted (MD-PBMCs; donor F254, 24 h, Caspase-1 inhibitor II 50 μM alone (0 DBT)): 39 ± 4 pg/mL

SMILES: Oc1ccc(-c2nc(-c3ccncc3)c(-c3ccc(F)cc3)[nH]2)cc1 [SB202190, reference compound]
- effect on baseline secretion (MD-PBMCs; 3 of the 4 donors, in 1 donor it greatly increased secretion): significantly decreased
- Interleukin 1 beta secreted (MD-PBMCs; donor F247, 24 h, SB202190 alone (0 DBT)): 1613 ± 141 pg/mL
- Interleukin 1 beta secreted (MD-PBMCs; donor F262, 24 h, SB202190 alone (0 DBT)): 149 ± 41 pg/mL
- Interleukin 1 beta secreted (MD-PBMCs; donor F372, 24 h, SB202190 alone (0 DBT)): 36 ± 3 pg/mL
- Interleukin 1 beta secreted (MD-PBMCs; donor F385, 24 h, SB202190 alone (0 DBT)): 357 ± 61 pg/mL

SMILES: CCC[CH2][Sn]([CH2]CCC)[CH2]CCC [TBT, tributyltin]
- fold increase in IL-1β secretion (monocyte-depleted PBMCs; donor F142, 24 h, 50 nM TBT): 2.1 fold
- fold increase in IL-1β secretion (monocyte-depleted PBMCs; donor F142, 24 h, 100 nM TBT): 1.8 fold
- fold increase in IL-1β secretion (monocyte-depleted PBMCs; donor F145, 24 h, 50 nM TBT): 1.8 fold
- fold increase in IL-1β secretion (monocyte-depleted PBMCs; donor F145, 24 h, 100 nM TBT): 1.5 fold
- fold increase in IL-1β secretion (monocyte-depleted PBMCs; third common donor (F152), 24 h, 50 nM TBT): 11 fold
- fold increase in IL-1β secretion ([1]; donor KB169, 50 nM TBT): 7.7 fold
- fold increase in IL-1β secretion ([1]; donor KB169, 100 nM TBT): 6.3 fold

SMILES: N#CC(=C(/N)Sc1ccccc1N)/C(C#N)=C(/N)Sc1ccccc1N [U0126, reference compound]
- Interleukin 1 beta secreted (MD-PBMCs; donor F240, 24 h, U0126 50 μM alone (0 DBT)): 1756 ± 54 pg/mL
- Interleukin 1 beta secreted (MD-PBMCs; donor F242, 24 h, U0126 50 μM alone (0 DBT)): 479 ± 29 pg/mL
- Interleukin 1 beta secreted (MD-PBMCs; donor F244, 24 h, U0126 50 μM alone (0 DBT)): 119 ± 28 pg/mL
- Interleukin 1 beta secreted (MD-PBMCs; donor F245, 24 h, U0126 50 μM alone (0 DBT)): 255 ± 25 pg/mL
